According to PubChem BioAssay AID1845202 (Molecular Pharmacology Branch, DTP, NCI, 2023):

Test system: DMS 114 tumor spheroids, viability % test/control
Experiment: Anticancer human tumor DMS 114 cell line growth inhibition;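 note: spheroids exposed to compounds for 7 days before read-out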;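 for viability, T/C: luminescence used as a proxy for viable cells; 100% = DMSO vehicle control viability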
Conditions: spheroids with HUVEC and MSC; for viability, T/C: stronger effect = lower value
In short: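 Complex tumor spheroids combined malignant cells with endothelial cells and mesenchymal stem cells. DNA-damaging drugs and DNA repair inhibitors were tested alone and in combination, at half-log dilutions down from clinical Cmax (top 10 microM if Cmax unknown), 0.25% DMSO final.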

[1] = curve of first compound, second compound 30 pM
[2] = curve of first compound, second compound 94.9 pM
[3] = curve of first compound, second compound 0.0003 µM
[4] = curve of first compound, second compound 0.000949 µM
[5] = curve of first compound, second compound 0.003 µM
[6] = second compound 30 pM, first compound 0.0316 µM
[7] = second compound 30 pM, first compound 0.1 µM
[8] = second compound 30 pM, first compound 0.316 µM
[9] = second compound 30 pM, first compound 1 µM
[10] = second compound 30 pM, first compound 3.16 µM
[11] = second compound 30 pM, first compound 10 µM
[12] = second compound 94.9 pM, first compound 0.0316 µM
[13] = second compound 94.9 pM, first compound 0.1 µM
[14] = second compound 94.9 pM, first compound 0.316 µM
[15] = second compound 94.9 pM, first compound 1 µM
[16] = second compound 94.9 pM, first compound 3.16 µM
[17] = second compound 94.9 pM, first compound 10 µM
[18] = second compound 0.0003 µM, first compound 0.0316 µM
[19] = second compound 0.0003 µM, first compound 0.1 µM
[20] = second compound 0.0003 µM, first compound 0.316 µM
[21] = second compound 0.0003 µM, first compound 1 µM
[22] = second compound 0.0003 µM, first compound 3.16 µM
[23] = second compound 0.0003 µM, first compound 10 µM
[24] = second compound 0.000949 µM, first compound 0.0316 µM
[25] = second compound 0.000949 µM, first compound 0.1 µM
[26] = second compound 0.000949 µM, first compound 0.316 µM
[27] = second compound 0.000949 µM, first compound 1 µM
[28] = second compound 0.000949 µM, first compound 3.16 µM
[29] = second compound 0.000949 µM, first compound 10 µM
[30] = second compound 0.003 µM, first compound 0.0316 µM
[31] = second compound 0.003 µM, first compound 0.1 µM
[32] = second compound 0.003 µM, first compound 0.316 µM
[33] = second compound 0.003 µM, first compound 1 µM
[34] = second compound 0.003 µM, first compound 3.16 µM
[35] = second compound 0.003 µM, first compound 10 µM

| SMILES | IC50 [1] [nM] | IC50 [2] [nM] | IC50 [3] [nM] | IC50 [4] [nM] | IC50 [5] [nM] | viability, T/C [6] [%] | viability, T/C [7] [%] | viability, T/C [8] [%] | viability, T/C [9] [%] | viability, T/C [10] [%] | viability, T/C [11] [%] | viability, T/C [12] [%] | viability, T/C [13] [%] | viability, T/C [14] [%] | viability, T/C [15] [%] | viability, T/C [16] [%] | viability, T/C [17] [%] | viability, T/C [18] [%] | viability, T/C [19] [%] | viability, T/C [20] [%] | other results |
| --- | --- | --- | --- | --- | --- | --- | --- | --- | --- | --- | --- | --- | --- | --- | --- | --- | --- | --- | --- | --- | --- |
| CC(C)n1c(=O)n(C)c2cnc3cc(F)c(-c4ccc(OCCCN5CCCCC5)nc4)cc3c21 + COc1cc2c(cc1O)CCNC21CSC2c3c(OC(C)=O)c(C)c4c(c3C(COC1=O)N1C(O)C3Cc5cc(C)c(OC)c(O)c5C(C21)N3C)OCO4 | 4100 | 1600 | < 31.6 | < 31.6 | < 31.6 | 75.2 | 102 | 91.9 | 84.7 | 59 | 19.2 | 63 | 52.2 | 54.2 | 58.5 | 42.3 | 16.5 | 21.9 | 23.5 | 22.8 | viability, T/C [21]: 20.6%; viability, T/C [22]: 22.3%; viability, T/C [23]: 8.07%; viability, T/C [24]: 2.63%; viability, T/C [25]: 2.62%; viability, T/C [26]: 2.73%; viability, T/C [27]: 5.38%; viability, T/C [28]: 2.74%; viability, T/C [29]: 1.03%; viability, T/C [30]: 0.2%; viability, T/C [31]: 0.22%; viability, T/C [32]: 0.17%; viability, T/C [33]: 0.14%; viability, T/C [34]: 0.12%; viability, T/C [35]: 0.23% |
| CC[C@@]1(O)C(=O)OCc2c1cc1n(c2=O)Cc2cc3c(CN(C)C)c(O)ccc3nc2-1 |  |  |  |  |  |  |  |  |  |  |  |  |  |  |  |  |  |  |  |  | viability, T/C (compound 0.003 µM): 107% [middle of 10 runs]; viability, T/C (compound 0.03 µM): 33.1% [middle of 10 runs]; viability, T/C (compound 0.0949 µM): 16.2% [middle of 10 runs]; viability, T/C (compound 0.3 µM): 10.4% [middle of 10 runs]; IC50 (compound alone, run of 10/17/2019): 22.3 nM [middle of 5 runs]; IC50 (compound alone, run of 10/25/2019): 20.2 nM [middle of 5 runs] |
| COc1cc(C)[nH]c(=O)c1CN1CCc2c(Cl)cc(C(OC)C3COC3)c(Cl)c2C1=O (stereo unspecified) + COc1cc2c(cc1O)CCNC21CSC2c3c(OC(C)=O)c(C)c4c(c3C(COC1=O)N1C(O)C3Cc5cc(C)c(OC)c(O)c5C(C21)N3C)OCO4 | > 10000 | > 10000 | < 31.6 | < 31.6 | < 31.6 | 118 | 90.5 | 83.5 | 82.1 | 74.8 | 69.6 | 89.1 | 85.9 | 86.7 | 66.2 | 65.1 | 56 | 38.9 | 43.3 | 41.4 | viability, T/C [21]: 34.7%; viability, T/C [22]: 28.9%; viability, T/C [23]: 26.6%; viability, T/C [24]: 2.76%; viability, T/C [25]: 4.07%; viability, T/C [26]: 4.68%; viability, T/C [27]: 3.28%; viability, T/C [28]: 2.76%; viability, T/C [29]: 1.64%; viability, T/C [30]: 0.25%; viability, T/C [31]: 0.27%; viability, T/C [32]: 0.26%; viability, T/C [33]: 0.24%; viability, T/C [34]: 0.24%; viability, T/C [35]: 0.29% |
